Patent US20240000868A1, “Composition Containing Bifidobacterium Lactis and Human Milk Oligosaccharides and Application Thereof” (Inner Mongolia Yili Industrial Group Co., Ltd., priority 2020, published 2024)

Tested on: Staphylococcus aureus ATCC25923
Test: Disc diffusion test of inhibition zone
Assay type: cell-based
Details: HN019 1×10^8 CFU; gentamicin 200 μg/mL; 37° C., 18 hours
Method: Discs were prepared with sterile filter paper, the test substances HMO (10 mg/mL, 30 mg/mL) or probiotic (1×10^8 CFU) were introduced thereto, and the discs were dried overnight under sterile conditions. Staphylococcus aureus ATCC25923 (1.0×10^6 CFU/mL) was uniformly applied on the surface of an NGM agar plate, and then the discs were placed on the surface of the inoculated agar plate. Gentamicin (200 μg/mL) was used as a positive control. All plates were incubated at 37° C. for 18 hours.

Gentamicin
transparent inhibition zone around disc (direct antibacterial effect): formation of a transparent inhibition zone
